Source: patent publication US20100221398A1, “PRESERVATIVE” (priority 2007, published 2010)

How the values were obtained:
A. niger conidiospores = experiment: Mould growth in bottles containing 1 mM 4-MCA + 1 mM putative inhibitor; type: cell-based, Aspergillus niger; conditions: 1 mM 4-MCA + 1 mM compound
Experimental: (§1) All compounds were tested to see if they prevented the degradation of 4-MCA by adding 10^6 A. niger conidiospores/ml to ACM medium at pH 4.0 containing 1 mM 4-methylcinnamic acid+1 mM putative inhibitor. Bottles were incubated at 28° C. and shaken at 120 rpm on an orbital shaker. Samples were taken at 5 and 72 hours.
Furthermore, other compounds generally more mould-toxic than the compounds listed in Table 2, were not able to inhibit mould growth when allied with 4-MCA at 1 mM e.g. (2,4-decadienal).

[1] = test system: A. niger N402 conidiospores; experiment: MIC determination in ACM medium pH 4.0; type: cell-based, Aspergillus niger; conditions: 1000 A. niger N402 conidiospores/ml, ACM pH 4.0, 28 C, 28 days, triplicate
Experimental: The possibility that the compounds found to inhibit 4-MCA degradation were acting as toxic agents was examined, by determination of their MIC (Minimum Inhibitory Concentration) values. The MIC value is the lowest concentration of inhibitor that will completely prevent growth of a microbe. In this case, MIC values were determined by preparation of a triplicate series of bottles of ACM medium (pH 4.0 10 mls) each bottle containing progressively higher concentrations of an inhibitor. Bottles were inoculated with 1000 A. niger N402 conidiospores/ml and were incubated at 28° C. for 28 days. The MIC was the lowest concentration of inhibitor preventing mould growth in all three replicates, and any other higher concentration of inhibitor.

[2] = test system: PadA1 activity in A. niger conidiospores; experiment: 4-MCA cloud disappearance (OD 600 nm) assay for PadA1 activity in mould spores; type: cell-based, Aspergillus niger; conditions: 1 mM 4-methylcinnamic acid + 1 mM putative inhibitor, 10^6 conidiospores/ml, ACM pH 4.0, 28 C, samples at 5 and 72 hours
Experimental: FIG. 2—illustrates the disappearance of the dense cloud of 4-methylcinnamic acid after addition of A. niger spores. The strain of A. niger used is A. niger N402. 10^6 A. niger conidiospores/ml were added to ACM medium (Aspergillus Complete Medium—which contains per one litre of water, 20 g glucose, 1.5 g casamino acids, 2 g bacteriological peptone, 1.5 g yeast extract, 6 g […], 0.52 g potassium chloride, 0.52 g magnesium sulphate heptahydrate, 1.52 g potassium orthophosphate, 1 mg ferrous sulphate, 1 mg zinc sulphate) at pH 4.0 containing 1 mM 4-methylcinnamic acid at time 0. Replicate cultures of 10 mls medium in 30 ml sealed bottles were incubated at 28° C. and shaken at 120 rpm on an orbital shaker. Each point represents the mean value of two bottles removed, sampled, and tested in a spectrophotometer at 600 nm;
10^6 A. niger conidiospores/ml were added to ACM medium at pH 4.0 containing 1 mM 4-methylcinnamic acid at time 0 (control—circles). Replicate cultures contained 1 mM 4-methylcinnamic acid+1 mM cinnamaldehyde (squares). Bottles were incubated at 28° C. and shaken at 120 rpm on an orbital shaker.
In the examples below a carboxylic acid similar to sorbic acid was used as it has unexpected properties which allow it to be easily assayed. The acid used was 4-methylcinnamic acid (4-MCA), which like sorbic acid is degraded by A. niger spores.
Unexpectedly 4-MCA forms a dense white cloud when added to water or growth media for moulds (such as ACM). The opacity of the cloud, when measured at an OD of 600 nm, is directly proportional to the concentration of 4-MCA. This makes it easy to assay for changes in 4-MCA levels. Up until now degradation of 4-MCA and sorbic acid has been determined through the detection of the volatile products produced after decarboxylation. The volatile products can be detected by using GCMS (Gas Chromatography/Mass Spectrometry), which is a slow and time consuming process.
It is understood that PadA1 in the germinating mould spores degrades the 4-MCA causing the white cloud to progressively disappear. Cloud disappearance is also accompanied by appearance of 4-methylstyrene in the headspace above the liquid medium (as illustrated in FIG. 3), which is measured by GCMS.
as §1

[3] = test system: Aspergillus niger strain N402 conidiospores; experiment: Spoilage of synthetic soft drink (ACM pH 4.0) with 300 ppm sorbic acid; type: cell-based; conditions: 300 ppm sorbic acid (2.68 mM) without PadA1 inhibitor, 28 days at 28 C
Experimental: Tests were carried out using ACM medium, pH 4.0, as a synthetic soft drink. Sorbic acid was added to the ACM, synthetic soft drink, at 300 ppm, which is the maximum level permitted in Europe.
The method used involved placing 10 ml of ACM pH 4.0+300 ppm sorbic acid (2.68 mM) in glass bottles (all experiments were carried out in triplicate) and inncoculating each 10 mls with 1000 conidiospores per ml of Aspergillus niger strain N402. Growth was measured after 28 days incubation at 28° C. PadA1 inhibitors of Formula I were added at 0, 0.025 mM, 0.05 mM, 0.1 mM, 0.15 mM, 0.2 mM, 0.3 mM, 0.4 mM, 0.5 mM, 0.6 mM, 0.8 mM, 1 mM.

SMILES | mould growth in bottles with 4-MCA + compound (A. niger conidiospores) | inhibition of degradation of 4-MCA by germinating conidiospores of A. niger [2] | also measured
CCC=CC=CC=O [2,4-Heptadienal] | not | – | –
CCCCCC=CC=CC=O [2,4-decadienal] | Mould growth occurred | does not block PadA1 activity | MIC (Minimum Inhibitory Concentration), comparison in words [1]: lower MIC than any of the compounds listed on Table 2
O=CC=Cc1ccccc1 [Cinnamaldehyde] | – | inhibits the degradation | –
O=C(O)C#Cc1ccccc1 [Phenyl propiolic acid] | – | inhibited degradation | –
O=CC#Cc1ccccc1 [phenyl propargyl aldehyde] | – | inhibited degradation | –
CC=CC=CC(=O)O [sorbic acid, 2,4-hexadienoic acid] | – | – | prevention of spoilage by A. niger conidiospores of the synthetic soft drink, sorbic acid alone [3]: insufficient to prevent spoilage
